# Source: patent US8153648B2, “Solid and crystalline dutasteride and processes for preparation thereof” (Gador S.A., priority 2008, dated 2012)
# What was measured:
# [1] = intrinsic dissolving speed (VDI) study; format: physicochemical; conditions: for change of crystalline or polymorphous structure during the dissolving assay: SDS 2% in hydrochloric acid 0.1N 225 ml, detected in the study chart
# Experimental: These study has been carried out using Lauril Sodium Sulphate SDS 2% in hydrochloric acid 0.1N 225 ml. as dissolvent. At the established experimental conditions, changes were seen depending on the crystalline or polymorphous structure present.
# [2] = stability on exposure to different humidity conditions; format: physicochemical
smiles,measurement,setting,value
"C[C@]12C=CC(=O)NC1CCC1C2CC[C@]2(C)C(C(=O)Nc3cc(C(F)(F)F)ccc3C(F)(F)F)CCC12 (stereo partly drawn) [Crystalline Form II of dutasteride, 17β-N-[2,5-bis(trifluoromethyl)phenyl]carbamoyl-4-aza-5-α-androst-1-en-3-one]",change of crystalline or polymorphous structure during the dissolving assay,[1],did not show any changes
same,changes in the solid Form with XR study,"[2]; 66% and 75% HR, 60-day period",No changes were observed
same,stability when exposed to humidity,"[2]; 66% and 75% HR, 60-day period",stable
same,"water content (KF), final sample",[2]; after 60 days at 66% and 75% HR,2.1
same,"water content (KF), initial sample",[2]; before humidity exposure,1.9
"C[C@]12C=CC(=O)NC1CCC1C2CC[C@]2(C)C(C(=O)Nc3cc(C(F)(F)F)ccc3C(F)(F)F)CCC12 (stereo partly drawn) [Crystalline Form III of dutasteride, 17β-N-[2,5-bis(trifluoromethyl)phenyl]carbamoyl-4-aza-5-α-androst-1-en-3-one]",intrinsic dissolving speed value (VDI),[1]; Lauril Sodium Sulphate SDS 2% in hydrochloric acid 0.1N 225 ml as dissolvent,of the same magnitude of the crystalline forms described in the previous art
"C[C@]12C=CC(=O)NC1CCC1C2CC[C@]2(C)C(C(=O)Nc3cc(C(F)(F)F)ccc3C(F)(F)F)CCC12 (stereo partly drawn) [Form I, 17β-N-[2,5-bis(trifluoromethyl)phenyl]carbamoyl-4-aza-5-α-androst-1-en-3-one]",change of crystalline or polymorphous structure during the dissolving assay,[1],transformation into Form III
"C[C@]12C=CC(=O)NC1CCC1C2CC[C@]2(C)C(C(=O)Nc3cc(C(F)(F)F)ccc3C(F)(F)F)CCC12 (stereo partly drawn) [amorphous Form, 17β-N-[2,5-bis(trifluoromethyl)phenyl]carbamoyl-4-aza-5-α-androst-1-en-3-one]",change of crystalline or polymorphous structure during the dissolving assay,[1],did not show any changes
